Assay results: patent publication US8343477B2, “Inhibitors of hepatitis C virus” (Bristol-Myers Squibb Company, priority 2006, dated 2013)

Legend:
[1] = target: HCV NS3/4A protease complex, BMS strain (Hepatitis C virus genotype 1a, UniProt P27958); test: FRET peptide assay to monitor HCV NS3/4A proteolytic activity, BMS strain; type: biochemical, HCV genotype 1a; details: read-out: IC50 against the NS3/4A BMS strain in the enzyme assay
Excerpt: (§1) HCV NS3 protease complexes, derived from the BMS strain, H77 strain or J4L6S strain, were generated, as described below. These purified recombinant proteins were generated for use in a homogeneous assay (see below) to provide an indication of how effective compounds of the present disclosure would be in inhibiting HCV NS3 proteolytic activity.
Serum from an HCV-infected patient was obtained from Dr. T. Wright, San Francisco Hospital. […]
In order to monitor HCV NS3/4A protease activity, an NS3/4A peptide substrate was used. […] The peptide also contains a fluorescence donor, EDANS, near one end of the peptide and an acceptor, DABCYL, near the other end. The fluorescence of the peptide is quenched by […] resonance energy transfer (RET) between the donor and the acceptor, but as the NS3 protease cleaves the peptide the products are released from RET quenching and the fluorescence of the donor becomes apparent.
The peptide substrate was incubated with one of the three recombinant NS3/4A protease complexes, in the absence or presence of a compound of the present disclosure. The inhibitory effects of a compound was determined by monitoring the formation of fluorescent reaction product in real time using a Cytofluor Series 4000. […]

[2] = target: T1, HCV NS3/4A protease complex, H77 strain (Hepatitis C virus genotype 1a, UniProt P27958, C1454S/C1711G); test: FRET peptide assay to monitor HCV NS3/4A proteolytic activity, H77 strain; type: biochemical, HCV genotype 1a; details: H77 strain (1a genotype)
T1 construct: DNA encoding the recombinant HCV NS3/4A protease complex (amino acids 1027 to 1711) for these strains; inferred from pET21b vector and Ni-NTA purification; made in house; host or cells: Escherichia coli BL21 (DE3), pET21b
T1 sequence (P27958 1027-1711 C1454S/C1711G, one chain of several): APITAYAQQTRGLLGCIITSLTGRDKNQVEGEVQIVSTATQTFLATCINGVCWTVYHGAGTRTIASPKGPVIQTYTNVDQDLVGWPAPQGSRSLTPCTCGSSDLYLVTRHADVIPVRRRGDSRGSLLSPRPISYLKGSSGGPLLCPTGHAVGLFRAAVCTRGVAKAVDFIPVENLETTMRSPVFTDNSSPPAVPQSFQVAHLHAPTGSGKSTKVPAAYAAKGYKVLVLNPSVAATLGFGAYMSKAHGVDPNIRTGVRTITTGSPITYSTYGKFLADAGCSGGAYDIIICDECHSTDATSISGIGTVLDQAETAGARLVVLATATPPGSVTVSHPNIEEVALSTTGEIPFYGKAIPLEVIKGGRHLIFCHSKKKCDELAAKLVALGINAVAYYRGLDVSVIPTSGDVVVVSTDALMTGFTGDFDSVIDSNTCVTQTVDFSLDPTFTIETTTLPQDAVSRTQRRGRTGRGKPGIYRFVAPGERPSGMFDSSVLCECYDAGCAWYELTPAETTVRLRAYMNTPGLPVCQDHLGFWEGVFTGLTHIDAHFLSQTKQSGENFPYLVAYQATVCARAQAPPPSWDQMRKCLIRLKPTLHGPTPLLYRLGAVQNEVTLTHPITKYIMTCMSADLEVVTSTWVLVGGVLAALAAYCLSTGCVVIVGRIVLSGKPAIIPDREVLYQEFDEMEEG
Excerpt: as §1
(§2) Serum from an HCV-infected patient was obtained from Dr. T. Wright, San Francisco Hospital. An engineered full-length cDNA (compliment deoxyribonucleic acid) template of the HCV genome (BMS strain) was constructed from DNA fragments obtained by reverse transcription-PCR(RT-PCR) of serum RNA (ribonucleic acid) and using primers selected on the basis of homology between other genotype 1a strains. From the determination of the entire genome sequence, a genotype 1a was assigned to the HCV isolate according to the classification of Simmonds et al. (See P Simmonds, K A Rose, S Graham, S W Chan, F McOmish, B C Dow, E A Follett, P L Yap and H Marsden, J. Clin. Microbiol., 31(6), 1493-1503 (1993)). […]

[3] = target: T2, HCV NS3/4A protease complex, J4L6S strain (Hepatitis C virus genotype 1b, UniProt O92972, C1454S/C1711G); test: FRET peptide assay to monitor HCV NS3/4A proteolytic activity, J4L6S strain; type: biochemical, HCV genotype 1b; details: J4L6S strain (1b genotype)
T2 construct: DNA encoding the recombinant HCV NS3/4A protease complex (amino acids 1027 to 1711) for these strains; inferred from pET21b vector and Ni-NTA purification; made in house; host or cells: Escherichia coli BL21 (DE3), pET21b
T2 sequence (O92972 1027-1711 C1454S/C1711G, one chain of several): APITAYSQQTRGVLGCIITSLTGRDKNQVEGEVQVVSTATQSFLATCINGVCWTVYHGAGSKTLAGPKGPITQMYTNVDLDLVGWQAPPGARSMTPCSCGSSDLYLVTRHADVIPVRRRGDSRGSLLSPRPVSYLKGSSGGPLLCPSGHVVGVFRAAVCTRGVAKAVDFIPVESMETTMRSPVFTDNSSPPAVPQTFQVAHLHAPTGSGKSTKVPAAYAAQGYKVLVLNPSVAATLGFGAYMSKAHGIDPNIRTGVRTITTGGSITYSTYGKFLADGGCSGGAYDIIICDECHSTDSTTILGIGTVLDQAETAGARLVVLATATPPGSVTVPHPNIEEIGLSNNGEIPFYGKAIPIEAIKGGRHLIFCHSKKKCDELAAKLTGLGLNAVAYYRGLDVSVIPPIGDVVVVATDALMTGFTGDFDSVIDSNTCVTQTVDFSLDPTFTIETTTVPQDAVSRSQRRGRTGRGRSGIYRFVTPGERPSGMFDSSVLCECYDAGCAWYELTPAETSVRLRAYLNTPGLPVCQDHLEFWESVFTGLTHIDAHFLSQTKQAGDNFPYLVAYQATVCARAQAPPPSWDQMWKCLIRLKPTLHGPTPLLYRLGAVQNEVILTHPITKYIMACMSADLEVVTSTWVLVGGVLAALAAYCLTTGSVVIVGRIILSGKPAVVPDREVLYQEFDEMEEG
Excerpt: as §1, §2

[4] = test system: human pancreatic chymotrypsin; test: Specificity assay, chymotrypsin (pNA substrate); type: biochemical; details: read-out: Chymotrypsin activity in the specificity assays (IC50)
Procedure: The specificities of compounds of the present disclosure were determined against a variety of serine proteases: human neutrophil elastase (HNE), porcine pancreatic elastase (PPE) and human pancreatic chymotrypsin and one cysteine protease: human liver cathepsin B. In all cases, a 96-well plate format protocol using colorimetric p-nitroaniline (pNA) substrate or fluorometric Amino-Methyl-Coumarin (AMC) substrate, specific for each enzyme was used as described previously (PCT Patent Application No. WO 00/09543) with some modifications. All enzymes were purchased from Sigma or EMDbiosciences while the substrates were from Bachem.
Each pNA assay included a 2 h enzyme-inhibitor pre-incubation at room temperature followed by addition of substrate and hydrolysis to ˜15% conversion as measured on a Spectramax Pro microplate reader. The cathepsin B assay was initiated by adding substrate to a 10 min enzyme-inhibitor pre-incubation at room temperature, and the assay plate measured immediately using the Cytofluor Series 4000. Compound concentrations varied from 100 to 0.4 μM depending on their potency.
50 mM Tris(hydroxymethyl)aminomethane hydrochloride (Tris-HCl) pH 8, 0.5 M Sodium Sulfate (Na2SO4), 50 mM NaCl, 0.1 mM EDTA, 3% DMSO, 0.01% Tween-20 with: […]
The percentage of inhibition was calculated using the formula: [1−((UVinh−UVblank)/(UVctl−UVblank))]×100 […]

HCV NS3/4A protease complex, BMS strain, sequence (P27958 1027-1711, one chain of several): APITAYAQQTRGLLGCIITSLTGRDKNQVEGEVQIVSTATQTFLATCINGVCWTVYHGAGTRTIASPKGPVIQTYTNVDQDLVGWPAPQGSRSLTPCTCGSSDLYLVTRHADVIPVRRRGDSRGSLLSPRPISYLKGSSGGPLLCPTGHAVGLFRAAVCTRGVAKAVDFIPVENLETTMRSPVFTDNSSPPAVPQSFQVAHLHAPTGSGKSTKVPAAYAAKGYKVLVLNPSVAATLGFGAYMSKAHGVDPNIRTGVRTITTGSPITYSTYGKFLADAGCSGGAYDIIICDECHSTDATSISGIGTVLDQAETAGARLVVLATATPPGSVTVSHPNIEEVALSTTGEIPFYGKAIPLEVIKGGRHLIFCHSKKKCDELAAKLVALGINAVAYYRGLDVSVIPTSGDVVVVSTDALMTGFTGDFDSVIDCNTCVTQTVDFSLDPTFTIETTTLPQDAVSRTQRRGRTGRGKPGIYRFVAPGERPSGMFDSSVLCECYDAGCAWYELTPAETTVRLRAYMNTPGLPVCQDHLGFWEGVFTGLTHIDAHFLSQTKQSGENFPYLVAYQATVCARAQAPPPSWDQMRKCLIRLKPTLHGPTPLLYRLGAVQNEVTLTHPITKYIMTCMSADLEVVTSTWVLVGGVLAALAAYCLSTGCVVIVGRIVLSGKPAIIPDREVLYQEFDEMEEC

SMILES	IC50 [1] [nM]	IC50 [2] [nM]	IC50 [3] [nM]	IC50 [4] [nM]	melting point [°C]
CC(C)(C)OC(=O)N[C@H]1CN(C2CC2)CCC/C=C\C2C[C@@]2(C(=O)NS(=O)(=O)C2CC2)NC(=O)[C@@H]2C[C@@H](Oc3ccccn3)CN2C1=O (some centres unmarked) [Compound 1]	98	18	12	> 100000	
CC(C)(C)OC(=O)N[C@H]1CCCOC/C=C\[C@@H]2C[C@@]2(C(=O)NS(=O)(=O)C2CC2)NC(=O)[C@@H]2C[C@@H](OCc3ccccc3)CN2C1=O [Compound 5, (1S,4R,6S,14S,18R, 7-cis)-18-benzyloxy-14-tert-butoxycarbonylamino-4-cyclopropanesulfonylaminocarbonyl-2,15-dioxo-3,16-diaza-10-oxatricyclo[14.3.0.04,6]nonadec-7-ene]					147 to 149
